US20190022166A1, “ORAL ANTI-INFLAMMATORY PEPTIDES TO TREAT EPILEPSY, SEIZURES AND CNS DISORDERS” (Creative Bio-Peptides Inc., priority 2017, published 2019)
Entries after “also recorded” stand apart in the source; their conditions may differ. Like-named read-outs stand apart in the source and are kept apart here. Where no end group is shown, it is not given here. [ ]: non-standard residue; d: D form.

What was measured:
[1] = target: CCR5 receptor on human monocytes (human) (UniProt P51681); assay: cell-based or functional assay
[2] = test system: CCL5; settings: mouse synaptosomes; cited from earlier work
[3] = test system: STAT3; settings: Hu; phenotype M1; cited from earlier work
[4] = test system: IL-23; settings: Hu; phenotype M1; cited from earlier work
[5] = test system: IL-4; settings: Hu; phenotype M2; cited from earlier work
[6] = test system: NFkB; settings: Hu; phenotype M1; cited from earlier work
[7] = test system: TLR4/MyD88; settings: Rat; phenotype M1; cited from earlier work
[8] = test system: ICAM-1; settings: Hu; phenotype M1; cited from earlier work
[9] = test system: IL-13; settings: Hu; phenotype M2; cited from earlier work
[10] = test system: TNFα; settings: Hu; phenotype M1; cited from earlier work
[11] = test system: IL-6; settings: Hu; phenotype M1; cited from earlier work
[12] = test system: IL-8; settings: Hu; phenotype M1; cited from earlier work
[13] = test system: activated microglia; assay: Pre-clinical animal models: neuron loss with aging, activated microglial neurotoxicity; assay type: in vivo
From the text: In humans DAPTA improved cognition, speed of information processing and functional brain imaging in neuro-AIDS (24, 25). Therefore, it is believed that the compounds according to the present invention have a strong potential to improve cognitive deficits in the indicated conditions due to shared neurodegenerative inflammatory mechanisms.

[14] = humans, neuro-AIDS; cited from earlier work
[15] = test system: IL-1; settings: Hu; phenotype M1; cited from earlier work
[16] = test system: IL-10; settings: Hu; phenotype M2; cited from earlier work
[17] = target: T1, CCR2 (Homo sapiens, UniProt P41597); assay: CCL2 (MCP-1) elicited chemotaxis of human monocytes; assay type: cell-based; parameters: endogenous in cells; host or cells: human monocytes; settings: FIG. 3; methods similar to FIG. 2; low concentration
T1 sequence (P41597 1-360 isoform P41597-2): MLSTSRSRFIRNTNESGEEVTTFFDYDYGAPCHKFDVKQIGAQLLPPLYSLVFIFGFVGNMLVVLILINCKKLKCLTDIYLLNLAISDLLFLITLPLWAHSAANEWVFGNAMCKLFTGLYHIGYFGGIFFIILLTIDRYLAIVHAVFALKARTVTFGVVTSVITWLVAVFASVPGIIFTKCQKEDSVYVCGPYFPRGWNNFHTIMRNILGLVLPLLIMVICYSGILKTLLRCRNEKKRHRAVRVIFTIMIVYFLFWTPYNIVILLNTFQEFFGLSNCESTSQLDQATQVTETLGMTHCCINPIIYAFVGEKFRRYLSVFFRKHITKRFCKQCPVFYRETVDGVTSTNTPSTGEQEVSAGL
Procedure: Monocytes were treated with the indicated doses of RAP-103 for 30 min before chemotaxis against human CCL2 (MCP-1) or CCL4 (MIP-1β) (both 50 ng/mL) for 90 min. Data (chemotactic index) are presented as mean ±SEM. The chemotactic index for MCP-1 without RAP-103 was 2.5-3.5 times over control, whereas for MIP-1 ? without RAP-103, it was approximately 2 times over control. Data are presented as mean ±SEM. (*P<0.05, **P<0.01 vs RAP-103 untreated). Data are from (12), FIG. 1. […] Dual-chemokine CCR2/CCR5 receptor antagonists may have added therapeutic value by blocking multiple inflammatory pathways.
The methods employed are similar to those in FIG. 2.

[18] = test system: TNFα; settings: Rat, nerve injured, oral gavage 0.05-1 mg/kg for 7 days, M1
From the text: (§1) The specific experimental details are provided in Padi, 2012 (12).

[19] = test system: IL-1β; settings: Rat, nerve injured, oral gavage 0.05-1 mg/kg for 7 days, M1
From the text: as §1

[20] = test system: MIP-1α (CCL3); settings: Rat, nerve injured, oral gavage 0.05-1 mg/kg for 7 days, M1
From the text: as §1

[21] = test system: MCP-1 (CCL2); settings: Rat, nerve injured, oral gavage 0.05-1 mg/kg for 7 days, M1
From the text: as §1

[22] = test system: CCR2; settings: Rat, nerve injured, oral gavage 0.05-1 mg/kg for 7 days, M1
From the text: as §1

[23] = test system: CCR5; settings: Rat, nerve injured, oral gavage 0.05-1 mg/kg for 7 days, M1
From the text: as §1

[24] = test system: IL-6; settings: Rat, nerve injured; oral gavage 0.05-1 mg/kg for 7 days; M1
From the text: as §1

[25] = test system: TLR4/MyD88; settings: iDCs, peptide 10-12 M for 30 min, then LPS 100 ng/ml, 48 hrs
Procedure: (§2) To determine whether all-D-TTNYT (SEQ ID NO:1) blocks maturation of antigen-presenting dendritic cells, human PBMC's were isolated from peripheral blood by Ficoll-Paque centrifugation and then monocytes were isolated by negative selection using immunobeads (Miltenyi). Human monocyte derived immature dendritic cells (iDCs) were then generated by treating monocytes with GM-CSF/IL4.
The iDCs were treated with all-D-TTNYT (SEQ ID NO:1), generic name RAP103 (12), at 10-12 M for 30 min. After 30 min LPS (100 ng/ml) was added to the cells and cells were analyzed after 48 hrs. for surface maturation markers using fluorescent labeled antibodies by flow cytometry.

[26] = target: insulin-like growth factor 1 receptor (IGF-1R) (Homo sapiens, UniProt P08069)
Sequence of insulin-like growth factor 1 receptor (IGF-1R) (P08069 31-736 limits assumed): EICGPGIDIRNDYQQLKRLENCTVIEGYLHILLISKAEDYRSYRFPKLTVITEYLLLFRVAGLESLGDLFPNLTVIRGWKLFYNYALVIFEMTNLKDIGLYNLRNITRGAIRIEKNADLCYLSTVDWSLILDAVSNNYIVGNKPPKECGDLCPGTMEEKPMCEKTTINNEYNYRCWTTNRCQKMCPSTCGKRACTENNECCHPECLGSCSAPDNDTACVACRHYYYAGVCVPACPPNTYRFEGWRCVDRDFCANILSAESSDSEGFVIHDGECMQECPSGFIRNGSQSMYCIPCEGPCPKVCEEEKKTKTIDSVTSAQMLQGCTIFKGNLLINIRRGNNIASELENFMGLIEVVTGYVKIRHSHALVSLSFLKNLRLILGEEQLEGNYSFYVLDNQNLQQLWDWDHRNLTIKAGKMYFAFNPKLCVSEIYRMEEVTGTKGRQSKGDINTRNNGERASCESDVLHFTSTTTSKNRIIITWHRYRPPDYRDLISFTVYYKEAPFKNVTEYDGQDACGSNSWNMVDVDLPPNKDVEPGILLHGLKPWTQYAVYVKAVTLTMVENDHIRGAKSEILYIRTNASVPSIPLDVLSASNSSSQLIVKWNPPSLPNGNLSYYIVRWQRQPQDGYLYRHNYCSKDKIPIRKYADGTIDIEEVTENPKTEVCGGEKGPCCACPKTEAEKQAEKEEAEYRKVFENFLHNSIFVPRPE
Procedure: as §2
The iDCs were treated with all-D-TTNYT (SEQ ID NO:1), generic name RAP103 (12), at 10-12 M for 30 min. […]

[27] = target: CCR5 (Homo sapiens, UniProt P51681); settings: 30 min pretreatment, CCL4 50 ng/mL for 90 min, FIG. 2, cited from earlier work
Sequence of CCR5 (Homo sapiens, UniProt P51681) (P51681 whole entry): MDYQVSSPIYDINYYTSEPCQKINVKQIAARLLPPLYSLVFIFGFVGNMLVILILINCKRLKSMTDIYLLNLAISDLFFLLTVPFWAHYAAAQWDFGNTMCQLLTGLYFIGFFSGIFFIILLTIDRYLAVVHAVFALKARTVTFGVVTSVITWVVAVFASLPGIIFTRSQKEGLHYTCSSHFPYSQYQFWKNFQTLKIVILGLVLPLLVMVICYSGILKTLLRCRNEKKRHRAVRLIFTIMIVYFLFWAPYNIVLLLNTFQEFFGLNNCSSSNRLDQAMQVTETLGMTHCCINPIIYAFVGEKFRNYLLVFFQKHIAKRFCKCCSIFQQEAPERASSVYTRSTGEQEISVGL

[28] = target: T1, CCR2; settings: 30 min pretreatment, CCL2 50 ng/mL for 90 min, FIG. 2, cited from earlier work
[29] = test system: response to bradykinin; settings: amounts up to 50,000 times the standard challenge of bradykinin; cited from earlier work
[30] = target: CCR2 receptor on human monocytes (human) (UniProt P41597); assay: cell-based or functional assay
[31] = listed as all-D-pentapeptide TTNYT

CCL4 (MIP-1β) (from UniProt P13236 24-92) (ligand)
chemotactic index of human monocytes, without RAP-103 (times over control) [1]: 2

Dala1-peptide T-amide [DAPTA]
CCL5 facilitated release of aspartate [2]: blocked | STAT3 Change [3]: decrease | IL-23 Change [4]: decrease | IL-4 Change [5]: elevated; also recorded: increase | NFkB Change [6]: decrease | TLR4/MyD88 Change [7]: decrease | ICAM-1 Change [8]: decrease | IL-13 Change [9]: elevated; also recorded: increase | TNFα Change [10]: reduced; also recorded: decrease | IL-6 Change [11]: reduced; also recorded: decrease | IL-8 Change [12]: reduced; also recorded: decrease | activated microglial mediated neurotoxicity and release of cytokines and chemokines [13]: blocked | loss of neurons with aging [13]: prevented | cognition [14]: improved | functional brain imaging [14]: improved | speed of information processing [14]: improved | IL-1 Change [15]: reduced; also recorded: decrease | IL-10 Change [16]: elevated; also recorded: increase

all-D-NTSYR: all-D-version of DAPTA related pentapeptide NTSYR ([dN][dT][dS][dY][dR])
CCL2 (MCP-1) human monocyte chemotaxis [17]: antagonists

all-D-SSTYR: all-D-version of DAPTA related pentapeptide SSTYR ([dS][dS][dT][dY][dR])
CCL2 (MCP-1) human monocyte chemotaxis [17]: antagonists

all-D-TTNYT
TNFα Change [18]: decrease | TNFα Change [18, 31]: lowering | IL-1β Change [19]: decrease | IL-1β Change [19, 31]: lowering | MIP-1α (CCL3) Change [20]: decrease | MIP-1α (CCL3) Change [20, 31]: lowering | MCP-1 (CCL2) Change [21]: decrease | MCP-1 (CCL2) Change [21, 31]: lowering | CCR2 Change [22]: decrease | CCR2 Change [22, 31]: lowering | CCR5 Change [23]: decrease | CCR5 Change [23, 31]: lowering | IL-6 Change [24]: decrease | CD58 (adhesion molecule) expression [25]: reduced | CD86 expression [25]: reduced | HLA-DR expression [25]: reduced | ICAM1 (adhesion molecule) expression [25]: reduced | TLR4-mediated maturation of antigen presenting dendritic cells [25]: blocks | DC maturation of these four markers caused by LL37 [26]: no effect | MIP-1β (CCL4)-elicited chemotaxis of human monocytes [27]: potently blocking | MIP-1β (CCL4)-elicited chemotaxis of human monocytes ([27]; listed as RAP-103): dual-antagonist | MCP-1 (CCL2)-elicited chemotaxis of human monocytes [28]: potently blocking | MCP-1 (CCL2)-elicited chemotaxis of human monocytes ([28]; listed as RAP-103): dual-antagonist

all-D-TTSYT: all-D-version of DAPTA related pentapeptide TTSYT ([dT][dT][dS][dY][dT])
CCL2 (MCP-1) human monocyte chemotaxis [17]: antagonists

all-D-bradykinin
inhibition of the response to bradykinin or bradykinin-like effect [29]: neither any inhibition of the response to bradykinin, or any bradykinin-like effect

human CCL2 (MCP-1) (from UniProt P13500 24-99) (ligand)
chemotactic index of human monocytes, without RAP-103 (times over control) [30]: 2.5 to 3.5
